Values quoted from earlier work, collected in patent publication US5246969A, “Di-propargyl-containing aryl/alkylsulfonyl-terminated alanine amino-diol compounds for treatment of hypertension” (G. D. Searle & Co., priority 1992, dated 1993).
Square brackets hold non-standard residues; d marks the D form. Peptide text beside a SMILES is read from it. * marks the point of attachment. Sta = CC(C)C[C@H](N)[C@@H](O)CC(=O)O; Isovaleryl = CC(C)CC(=O)*

Test system: hog renin
Details: nephrectomized rats after the injection of hog renin

CC(C)CC(=O)N[C@H](C(=O)N[C@H](C(=O)N[C@@H](CC(C)C)[C@@H](O)CC(=O)N[C@@H](C)C(=O)N[C@@H](CC(C)C)[C@@H](O)CC(=O)O)C(C)C)C(C)C [pepstatin] (Isovaleryl-VV[Sta]A[Sta]-OH)
blood pressure in vivo: reduce blood pressure
